Patent US6716865B1, “Benzoxa- and benzthiazoles” (Novartis AG, priority 1999, dated 2004)

Experiments:
[1] = target: T1, CHO cells stably transfected with human steroid sulfatase (CHO/STS) (Homo sapiens, UniProt P08842); assay: Steroid sulfatase inhibition in the CHO/STS assay; type: cell-based; conditions: assay 2, CHO/STS cells, overnight incubation, MUS substrate
T1 construct: expressed in transfected cells; host or cells: CHO cells, stably transfected
T1 sequence (P08842 22-583): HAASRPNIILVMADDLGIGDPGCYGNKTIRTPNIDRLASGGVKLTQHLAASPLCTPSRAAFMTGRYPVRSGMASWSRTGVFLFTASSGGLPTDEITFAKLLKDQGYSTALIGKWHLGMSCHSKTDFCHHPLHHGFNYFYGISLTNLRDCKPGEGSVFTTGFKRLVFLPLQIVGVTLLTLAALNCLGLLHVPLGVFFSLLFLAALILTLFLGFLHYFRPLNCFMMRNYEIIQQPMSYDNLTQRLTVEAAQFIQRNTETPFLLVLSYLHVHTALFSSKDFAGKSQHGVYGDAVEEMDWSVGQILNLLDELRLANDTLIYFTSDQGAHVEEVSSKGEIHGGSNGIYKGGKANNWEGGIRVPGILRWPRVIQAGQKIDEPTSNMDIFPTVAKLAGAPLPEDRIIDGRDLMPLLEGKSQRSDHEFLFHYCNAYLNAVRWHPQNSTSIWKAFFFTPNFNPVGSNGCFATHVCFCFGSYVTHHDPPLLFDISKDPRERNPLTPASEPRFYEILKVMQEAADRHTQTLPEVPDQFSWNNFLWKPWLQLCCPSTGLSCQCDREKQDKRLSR
Procedure: 2. Steroid sulfatase inhibition in the CHO/STS assay:
CHO cells stably transfected with human steroid sulfatase (CHO/STS) are seeded into microtiter plates. After reaching approximately 90% confluency, they are incubated overnight with graded concentrations of test substances. They are then fixed with 4% paraformaldehyde for 10 minutes at room temperature and washed 4 times with PBS before incubation with 100 μl/well 0.5 mM 4-methylumbelliferyl sulfate (MUS) dissolved in 0.1M Tris-HCl, pH 7.5. The enzyme reaction is carried out at 37° C. for one hour. Then 50 μl/well stop solution (1M Tris-HCl, pH 10.4) are added. The enzyme reaction solutions are transferred to white plates (Microfluor, Dynex, Chantilly, Va., USA) and read in a Fluoroskan II fluroescence microtiter plate reader. Reagent blanks are subtracted from all values. For drug testing, the fluorescence units (FU) are divided by the optical density readings after staining cellular protein with sulforhodamine B (OD550) in order to correct for variations in cell number. IC50 values are determined by linear interpolation between two bracketing points. In each assay with inhibitors, estrone 3-O-sulfamate is run as a reference compound, and the IC50 values are normalized to estrone 3-O-sulfamate:
relative IC50=IC50 compound/IC50 estrone 3-O-sulfamate.

[2] = target: T2, Purified human steroid sulfatase (Homo sapiens, UniProt P08842); assay: Steroid sulfatase inhibition in vitro (p-nitrocatechol sulfate cleavage)
T2 sequence (P08842 22-583): T1 sequence (P08842 22-583)
Procedure: Steroid sulfatase inhibition in vitro:
Purified human steroid sulfatase not only is capable of cleaving steroid sulfates, but also readily cleaves aryl sulfates, such as p-nitrocatechol sulfate which is used herein. Assay mixtures are prepared by consecutively dispensing the following solutions into the wells of flat-bottom microtiter plates:
1) 50 μl inhibitor dilution in buffer (=0.1 M Tris-HCl, ph 7.5, 0.1% Triton X-100);
2) 50 μl substrate (=20 mM p-nitrocatechol sulfate in buffer)
3) 50 μl enzyme dilution to give a final concentration of 75 nM steroid sulfatase.
Plates are incubated at 37° C. for 30 minutes. The assay is stopped by addition of 100 μl of 1 N NaOH, and optical density measured in a microplate reader at 492 nm. […] IC50 values are calculated by nonlinear regression of the concentration/optical density data using the program Grafit (Erithacus Ltd.). Reported values are the result of three determinations.
From the fluorescence intensity data (I) obtained at different concentrations (c) of the test compound, the concentration inhibiting the enzymatic activity at 50% (IC50) is calculated using the equation [formula]
Relative IC50 values (rel IC50) are defined as follows: [formula]

NS(=O)(=O)Oc1ccc2nc(C=C3C4CC5CC(C4)CC3C5)oc2c1 [Example 12, sulfamic acid 2-(adamantan-2-ylidenemethyl)benzoxazol-6-yl ester]
rel IC50 (IC50 compound/IC50 estrone 3-O-sulfamate) [1]: 1.25 | IC50 [2]: ~970 nM
